Results on six compounds are retold here after ChEMBL document CHEMBL4400519, “Indazolylketones as new multitarget cannabinoid drugs” (Eur J Med Chem, 2019).

Series [1] addresses Beta-secretase 1 (Homo sapiens) (UniProt P56817). Description: Inhibition of human BACE1 at 10 uM incubated for 60 mins using rhodamine-EVNLDAEFK-quencher substrate by FRET assay.
The target of series [2] is T1, Cholinesterase (Homo sapiens, UniProt P06276). Briefly: Inhibition of human serum BChE using butyrylthiocholine as substrate by Ellman's assay.
T1 sequence (P06276 whole entry): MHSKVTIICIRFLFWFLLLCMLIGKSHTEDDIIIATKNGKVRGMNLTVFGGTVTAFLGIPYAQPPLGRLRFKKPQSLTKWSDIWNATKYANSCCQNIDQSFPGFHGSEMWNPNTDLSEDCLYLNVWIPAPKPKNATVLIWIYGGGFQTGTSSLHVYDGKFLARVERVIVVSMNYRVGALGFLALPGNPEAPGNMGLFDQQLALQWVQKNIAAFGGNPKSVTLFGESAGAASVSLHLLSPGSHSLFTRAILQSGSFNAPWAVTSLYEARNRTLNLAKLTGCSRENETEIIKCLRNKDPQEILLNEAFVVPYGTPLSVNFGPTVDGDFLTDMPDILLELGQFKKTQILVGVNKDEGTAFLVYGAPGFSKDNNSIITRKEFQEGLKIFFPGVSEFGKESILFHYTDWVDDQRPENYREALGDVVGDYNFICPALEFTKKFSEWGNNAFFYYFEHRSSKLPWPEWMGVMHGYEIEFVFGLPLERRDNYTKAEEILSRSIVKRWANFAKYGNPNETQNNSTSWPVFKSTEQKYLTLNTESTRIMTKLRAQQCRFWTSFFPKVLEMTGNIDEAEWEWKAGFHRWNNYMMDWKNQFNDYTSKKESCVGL
For series [3], the target named is T2, Cannabinoid receptor (Mus musculus) (UniProt P47746+P47936). Description: Agonist activity at cannabinoid receptor in ICR mouse vas deferens assessed as inhibition of electrically induced contractions at 9 x 10^-7 M after 10 mins relative to control. It is filed as protein assay.
T2 sequence (P47746 whole entry, looked up): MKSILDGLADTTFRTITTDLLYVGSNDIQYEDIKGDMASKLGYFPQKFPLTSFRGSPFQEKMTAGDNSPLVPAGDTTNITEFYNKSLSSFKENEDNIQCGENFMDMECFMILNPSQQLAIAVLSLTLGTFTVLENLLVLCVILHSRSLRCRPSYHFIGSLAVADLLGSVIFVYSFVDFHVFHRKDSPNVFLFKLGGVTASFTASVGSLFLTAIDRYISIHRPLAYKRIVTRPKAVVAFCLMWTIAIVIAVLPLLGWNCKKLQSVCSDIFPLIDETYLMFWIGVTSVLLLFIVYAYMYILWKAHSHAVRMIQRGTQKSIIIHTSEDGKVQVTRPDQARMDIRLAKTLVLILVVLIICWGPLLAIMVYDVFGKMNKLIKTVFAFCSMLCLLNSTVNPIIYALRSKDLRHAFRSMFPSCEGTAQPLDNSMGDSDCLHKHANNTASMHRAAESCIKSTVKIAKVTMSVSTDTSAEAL
T2 sequence (P47936 whole entry, looked up): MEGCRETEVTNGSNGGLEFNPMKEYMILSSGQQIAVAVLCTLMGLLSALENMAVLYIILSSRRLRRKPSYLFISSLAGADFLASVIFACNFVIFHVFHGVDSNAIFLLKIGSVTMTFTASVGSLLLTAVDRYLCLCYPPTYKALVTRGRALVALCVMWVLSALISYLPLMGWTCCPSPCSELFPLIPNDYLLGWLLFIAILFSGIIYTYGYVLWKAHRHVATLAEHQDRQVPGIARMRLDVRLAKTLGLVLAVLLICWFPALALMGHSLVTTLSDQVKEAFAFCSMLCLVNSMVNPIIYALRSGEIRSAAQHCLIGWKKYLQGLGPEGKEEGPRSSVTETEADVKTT
The species named for series [4] is Homo sapiens. Briefly: Antiproliferative activity against Alzheimer's patient derived lymphoblast cells at 5 uM after 72 hrs by MTT assay. It is filed as functional. In general terms: Tetrazolium dyes change colour on reduction, which living cells bring about.
The target of series [5] is T2, Cannabinoid receptor (Mus musculus). Description: Agonist activity at cannabinoid receptor in ICR mouse vas deferens assessed as inhibition of electrically induced contractions at 10^-7 M after 10 mins in presence of CB2 antagonist AM630 relative to control. In kind it is protein assay.
For series [6] the target is unchanged. Briefly: Agonist activity at cannabinoid receptor in ICR mouse vas deferens assessed as inhibition of electrically induced contractions at 9 x 10^-7 M after 10 mins in presence of CB1 antagonist AM251 relative to control. In kind it is protein assay.
The target of series [7] is T3, Acetylcholinesterase (Homo sapiens, UniProt P22303). Description: Inhibition of human erythrocyte AChE at 10 uM using acetylthiocholine as substrate by Ellman's assay. Background: In Ellman's method for cholinesterases, released thiocholine reacts with DTNB.
T3 sequence (P22303 whole entry): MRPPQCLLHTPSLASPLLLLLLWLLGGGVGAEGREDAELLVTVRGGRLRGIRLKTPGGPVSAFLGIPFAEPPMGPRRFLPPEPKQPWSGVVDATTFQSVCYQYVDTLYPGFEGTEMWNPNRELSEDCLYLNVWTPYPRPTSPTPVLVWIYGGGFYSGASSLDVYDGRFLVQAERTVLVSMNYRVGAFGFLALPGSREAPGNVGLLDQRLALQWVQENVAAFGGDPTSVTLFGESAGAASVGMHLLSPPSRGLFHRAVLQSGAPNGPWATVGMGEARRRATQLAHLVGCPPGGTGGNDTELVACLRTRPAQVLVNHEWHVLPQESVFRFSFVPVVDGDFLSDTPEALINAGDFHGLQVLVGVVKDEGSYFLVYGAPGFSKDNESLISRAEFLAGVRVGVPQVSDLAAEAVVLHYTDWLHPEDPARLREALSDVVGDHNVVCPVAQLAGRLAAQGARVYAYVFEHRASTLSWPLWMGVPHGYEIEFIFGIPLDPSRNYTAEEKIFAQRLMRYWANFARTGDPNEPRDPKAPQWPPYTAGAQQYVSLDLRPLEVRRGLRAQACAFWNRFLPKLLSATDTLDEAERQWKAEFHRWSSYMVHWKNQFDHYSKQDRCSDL
Series [8] has as its target T2, Cannabinoid receptor (Mus musculus). Description: Agonist activity at cannabinoid receptor in ICR mouse vas deferens assessed as inhibition of electrically induced contractions at 3 x 10^-7 M after 10 mins in presence of CB2 antagonist AM630 relative to control. It is filed as protein assay.
Series [9] shares this target. Description: Agonist activity at cannabinoid receptor in ICR mouse vas deferens assessed as inhibition of electrically induced contractions at 1.82 x 10^-5 M after 10 mins in presence of CB2 antagonist AM630 relative to control. In kind it is protein assay.
For series [10] the target is unchanged. Briefly: Agonist activity at cannabinoid receptor in ICR mouse vas deferens assessed as inhibition of electrically induced contractions at 2.7 x 10^-6 M after 10 mins in presence of CB2 antagonist AM630 relative to control. In kind it is protein assay.
The target is the same in series [11]. Briefly: Agonist activity at cannabinoid receptor in ICR mouse vas deferens assessed as inhibition of electrically induced contractions at 2.7 x 10^-6 M after 10 mins in presence of CB1 antagonist AM251 relative to control. It is filed as protein assay.
For series [12] the target is unchanged. Description: Agonist activity at cannabinoid receptor in ICR mouse vas deferens assessed as inhibition of electrically induced contractions at 2.7 x 10^-6 M after 10 mins relative to control. In kind it is protein assay.
For series [13] the target is unchanged. Description: Agonist activity at cannabinoid receptor in ICR mouse vas deferens assessed as inhibition of electrically induced contractions at 9 x 10^-7 M after 10 mins in presence of CB2 antagonist AM630 relative to control. It is filed as protein assay.
Series [14] has the same target. Briefly: Agonist activity at cannabinoid receptor in ICR mouse vas deferens assessed as inhibition of electrically induced contractions at 1.82 x 10^-5 M after 10 mins in presence of CB1 antagonist AM251 relative to control. It is filed as protein assay.
Series [15] has as its target T3, Acetylcholinesterase. Briefly: Inhibition of human erythrocyte AChE using acetylthiocholine as substrate by Ellman's assay.
Series [16] addresses T2, Cannabinoid receptor (Mus musculus). Briefly: Agonist activity at cannabinoid receptor in ICR mouse vas deferens assessed as inhibition of electrically induced contractions at 8.1 x 10^-6 M after 10 mins in presence of CB2 antagonist AM630 relative to control. It is filed as protein assay.
Series [17] shares this target. Description: Agonist activity at cannabinoid receptor in ICR mouse vas deferens assessed as inhibition of electrically induced contractions at 8.1 x 10^-6 M after 10 mins relative to control. In kind it is protein assay.
For series [18] the target is unchanged. Description: Agonist activity at cannabinoid receptor in ICR mouse vas deferens assessed as inhibition of electrically induced contractions at 8.1 x 10^-6 M after 10 mins in presence of CB1 antagonist AM251 relative to control. It is filed as protein assay.
Series [19] shares this target. Description: Agonist activity at cannabinoid receptor in ICR mouse vas deferens assessed as inhibition of electrically induced contractions at 10^-7 M after 10 mins in presence of CB1 antagonist AM251 relative to control. In kind it is protein assay.
The nature of series [20]: Antioxidant activity assessed as trolox equivalent of APPH-induced radical scavenging activity by ORAC-FL assay. In kind it is functional.
In the next series the test system is SH-SY5Y. Description: Toxicity in human SH-SY5Y cells at 20 uM after 24 hrs by MTT assay. In kind it is cell-based.
Series [21] concerns the target T2, Cannabinoid receptor (Mus musculus). Briefly: Agonist activity at cannabinoid receptor in ICR mouse vas deferens assessed as inhibition of electrically induced contractions at 3 x 10^-7 M after 10 mins in presence of CB1 antagonist AM251 relative to control. It is filed as protein assay.
The species entered for series [22] is Homo sapiens. Briefly: Antiproliferative activity against Alzheimer's patient derived lymphoblast cells at 5 uM in presence of CB2 antagonist AM630 after 72 hrs by MTT assay. In kind it is functional.
Series [23] deals with T2, Cannabinoid receptor (Mus musculus). Briefly: Agonist activity at cannabinoid receptor in ICR mouse vas deferens assessed as inhibition of electrically induced contractions at 1.82 x 10^-5 M after 10 mins relative to control. It is filed as protein assay.
The nature of series [24]: Antiproliferative activity against normal human derived lymphoblast cells at 5 uM after 72 hrs by MTT assay.
Series [25] concerns the target T2, Cannabinoid receptor (Mus musculus). Briefly: Agonist activity at cannabinoid receptor in ICR mouse vas deferens assessed as inhibition of electrically induced contractions at 3 x 10^-7 M after 10 mins relative to control. In kind it is protein assay.
For series [26] the target is unchanged. Briefly: Agonist activity at cannabinoid receptor in ICR mouse vas deferens assessed as inhibition of electrically induced contractions at 10^-7 M after 10 mins relative to control. It is filed as protein assay.
Series [27] addresses T1, Cholinesterase. Briefly: Competitive inhibition of human serum BChE using butyrylthiocholine as substrate by Lineweaver-Burk plot analysis.
For series [28], the target named is T1, Cholinesterase. Description: Inhibition of human serum BChE at 10 uM using butyrylthiocholine as substrate by Ellman's assay.

pIC50: −log10 of the molar value. Calls of active or inactive are those of the source. The calls are words filed in the database; no cut-off is given here.

Beta-secretase 1 (Homo sapiens), sequence (P56817 whole entry): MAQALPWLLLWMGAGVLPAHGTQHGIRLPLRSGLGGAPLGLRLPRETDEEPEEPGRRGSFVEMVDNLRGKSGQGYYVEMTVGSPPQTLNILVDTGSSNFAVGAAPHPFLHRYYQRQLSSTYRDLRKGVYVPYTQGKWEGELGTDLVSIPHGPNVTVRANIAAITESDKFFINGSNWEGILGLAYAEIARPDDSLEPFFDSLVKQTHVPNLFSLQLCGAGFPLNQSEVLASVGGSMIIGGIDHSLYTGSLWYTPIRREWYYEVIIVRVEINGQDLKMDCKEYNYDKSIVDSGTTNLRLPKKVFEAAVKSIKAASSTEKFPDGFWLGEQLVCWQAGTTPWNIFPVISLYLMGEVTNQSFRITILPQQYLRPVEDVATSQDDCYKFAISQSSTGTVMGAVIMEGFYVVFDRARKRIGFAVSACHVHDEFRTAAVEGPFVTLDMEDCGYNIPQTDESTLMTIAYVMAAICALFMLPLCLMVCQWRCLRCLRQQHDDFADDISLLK

On to `O=C(c1ccccc1OCc1ccccc1)n1nc(OCCCN2CCCCC2)c2ccccc21`, for which the inhibition (in general, the relative decrease from the control value, in per cent) in [1] was 38.4%; in series [3], 6.4%; in [5] it was -3.1%; in [6], -4.5%; on Acetylcholinesterase [7], 31%; in series [8], 1.1%. Further, the inhibition in [9] is 77.5%; in series [10] it was -3%; in series [11], -1%; in series [12] it was 31.4%; in series [13] it was -0.5%; in series [14], 74.8%. Moreover, the inhibition in series [16] is 29.7%; in series [17], 74.4%; in series [18], 26.4%; in [19] it was -6.8%; in series [21], -6.8%; in series [23] it was 94.7%. Besides, the figures for the pIC50 against Cholinesterase [2] and at Acetylcholinesterase [15] were 8.60 and < 5.00, respectively. In addition, the outcome in the series filed under Homo sapiens [4] was Active. For the same compound, the outcome (in series [20]; in the series filed under Homo sapiens [22]) was inactive. Besides, the values for the Activity result (in the series on SH-SY5Y; in [24]) were “Toxic” and “Non-Toxic”, respectively.

With `O=C(c1cccc(Cl)c1Cl)n1nc(OCCCN2CCCCC2)c2ccccc21`, the inhibition is 6.2% in series [25]; 45.1% in series [1]; 14.3% in series [3]; -3% in series [5]; 8.7% in series [6]; 0% in series [8]. The inhibition amounted to 85.5% in [9]; 18.2% in series [10]; 15.2% in series [11]; 27.4% in series [12]; 10.4% in series [13]; 89.8% in [14]. Also, the inhibition was 62.7% in [16]; 89.3% in [17]; 65.3% in series [18]; -0.7% in series [19]; 1.4% in [26]; 2% in series [21]. Further, in [23], the inhibition came to 96.6%. Besides, the pIC50 (as a rule, −log10 of the IC50, conventionally taken in molar units) against Cholinesterase [2] is 7.10; at Acetylcholinesterase [15], 4.77. For the same compound, in the series listed under Homo sapiens [4], the result was Active. For the same compound, the outcome (in series [20]; in the series filed under Homo sapiens [22]) was inactive. For the same compound, the Activity result with SH-SY5Y is recorded as “Toxic”; in [24], “Non-Toxic”.

With `O=C(c1ccc2ccccc2c1)n1nc(OCCN2CCCCC2)c2ccccc21`, the inhibition was -1.2% in series [25]; 50% in series [1]; -3.5% in [3]; 43% against Acetylcholinesterase [7]; -2.8% in series [12]; 4% in series [17]. Moreover, the inhibition came to 0.3% in [26] and 18.2% in [23]. Moreover, the inhibition result on Cholinesterase [27] is “Active”. Also, the pIC50 against Cholinesterase [2] was 5.40; against Acetylcholinesterase [15], < 5.00. The result in series [20] was inactive.

Regarding `O=C(c1ccc2ccccc2c1)n1nc(OCCCN2CCCCC2)c2ccccc21`, the inhibition was -1% in series [25]; 38% in [1]; 0.1% in series [3]; 33% at Acetylcholinesterase [7]; 49.1% in series [9]; -9.7% in [10]. The inhibition in [12] is 1.2%; in series [14], 49.5%; in series [16], 20.9%; in series [17] it was 17.2%; in series [18] it was 0.7%; in series [26], -2.1%. For the same compound, the inhibition in [23] is 41.9%. Besides, at Cholinesterase [27], the inhibition result is “Active”. For the same compound, the pIC50 against Cholinesterase [2] is 5.68; on Acetylcholinesterase [15], < 5.00. The result in series [20] was inactive.

For `O=C(Cc1ccc(Cl)cc1)n1nc(OCCCN2CCCCC2)c2ccccc21`, the inhibition in series [25] was -4.8%; in series [1], 50%; in series [3] it was 0.4%; in [5], -7.8%; in series [6], -2.2%; against Acetylcholinesterase [7], 43%. Further, the inhibition is -3.2% in series [8]; 96.1% in series [9]; 19.7% in [10]; 12.4% in series [11]; 7.3% in [12]; 2.4% in series [13]. Moreover, the inhibition in [14] was 83.5%; in series [16], 86.6%; in series [17], 67.4%; in [18] it was 61.8%; in [19], -5.5%; on Cholinesterase [28], 46%. Further, the inhibition is -4.5% in series [26], -6.2% in series [21] and 94.2% in [23]. In addition, the pIC50 against Cholinesterase [2] and at Acetylcholinesterase [15] was < 5.00 in each case. Also, in [20], the result was inactive.

As to `O=C(c1cccc(Cl)c1F)n1nc(OCCCN2CCCCC2)c2ccccc21`, the inhibition is 13.9% in series [25]; 34% in series [1]; 18.7% in [3]; -1.5% in series [5]; 4.3% in series [6]; 48% against Acetylcholinesterase [7]. Also, the inhibition in series [8] was 1.7%; in [9], 58.3%; in series [10], -2.8%; in [11], 12.9%; in series [12], 24.9%; in series [13], -3.8%. For the same compound, the inhibition was 76.1% in series [14]; 12.9% in series [16]; 54.7% in series [17]; 54.9% in series [18]; -7.1% in series [19]; 9.6% in series [26]. Moreover, the inhibition in [21] is -5.3%; in series [23] it was 80.5%. In addition, the pIC50 at Cholinesterase [2] is 6.10; against Acetylcholinesterase [15], < 5.00. Further, the outcome in the series filed under Homo sapiens [4] was Active. Further, the result (in [20]; in the series filed under Homo sapiens [22]) was inactive. Also, the Activity result in the series on SH-SY5Y is reported as “Toxic”; in [24], “Non-Toxic”.
